From ChEMBL document CHEMBL3352263, “Synthesis and biological evaluation of bivalent cannabinoid receptor ligands based on hCB₂R selective benzimidazoles reveal unexpected intrinsic properties” (Bioorg Med Chem, 2014)

Key:
Cannabinoid receptor 1 [1] = biological target: T1, Cannabinoid receptor 1 (Homo sapiens, UniProt P21554); test: Agonist activity at human CB1 receptor expressed in Sf9 cells coexpressing Galpha i2 assessed as Galpha GTPase activity using [gamma-33P]GTP at 100 uM by scintillation counting
T1 sequence (P21554 whole entry): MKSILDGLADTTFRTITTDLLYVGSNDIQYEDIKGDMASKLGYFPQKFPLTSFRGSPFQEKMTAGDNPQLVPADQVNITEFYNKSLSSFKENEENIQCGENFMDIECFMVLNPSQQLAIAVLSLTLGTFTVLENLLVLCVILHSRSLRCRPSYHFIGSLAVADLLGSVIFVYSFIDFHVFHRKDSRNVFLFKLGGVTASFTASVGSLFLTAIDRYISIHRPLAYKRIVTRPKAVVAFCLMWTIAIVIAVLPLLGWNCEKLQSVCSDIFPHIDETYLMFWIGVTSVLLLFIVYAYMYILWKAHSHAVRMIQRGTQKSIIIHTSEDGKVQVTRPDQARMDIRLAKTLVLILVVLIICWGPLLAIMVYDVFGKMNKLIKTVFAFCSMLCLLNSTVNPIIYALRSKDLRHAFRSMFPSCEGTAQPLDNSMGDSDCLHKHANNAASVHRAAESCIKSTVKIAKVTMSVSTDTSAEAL

Cannabinoid receptor 2 [2] = biological target: T2, Cannabinoid receptor 2 (Homo sapiens, UniProt P34972); test: Antagonist activity at human CB2 receptor expressed in Sf9 cells coexpressing Galpha i2 assessed as Galpha GTPase activity using [gamma-33P]GTP at 100 uM by scintillation counting in presence of 30 nM CP55940; format: functional
T2 sequence (P34972 whole entry): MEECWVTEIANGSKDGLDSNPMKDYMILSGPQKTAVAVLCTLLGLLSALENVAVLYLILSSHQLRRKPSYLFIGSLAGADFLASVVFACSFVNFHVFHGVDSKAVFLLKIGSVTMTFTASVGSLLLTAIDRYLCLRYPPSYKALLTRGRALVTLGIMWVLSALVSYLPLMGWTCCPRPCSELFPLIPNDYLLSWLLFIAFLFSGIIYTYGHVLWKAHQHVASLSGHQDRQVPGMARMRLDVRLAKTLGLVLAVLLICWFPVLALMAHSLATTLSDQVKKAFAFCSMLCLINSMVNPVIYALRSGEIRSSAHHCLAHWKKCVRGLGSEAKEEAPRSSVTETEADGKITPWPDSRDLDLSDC

Cannabinoid receptor 2 [3] = biological target: T2, Cannabinoid receptor 2; test: Antagonist activity at human CB2 receptor expressed in Sf9 cells coexpressing Galpha i2 assessed as Galpha GTPase activity using [gamma-33P]GTP by scintillation counting in presence of 30 nM CP55940; format: functional
Cannabinoid receptor 2 [4] = biological target: T2, Cannabinoid receptor 2; test: Agonist activity at human CB2 receptor expressed in Sf9 cells coexpressing Galpha i2 assessed as Galpha GTPase activity using [gamma-33P]GTP at 100 uM by scintillation counting
Cannabinoid receptor 1 [5] = biological target: T1, Cannabinoid receptor 1; test: Antagonist activity at human CB1 receptor expressed in Sf9 cells coexpressing Galpha i2 assessed as Galpha GTPase activity using [gamma-33P]GTP at 100 uM by scintillation counting in presence of 30 nM CP55940; format: functional
Cannabinoid receptor 2 [6] = biological target: T2, Cannabinoid receptor 2; test: Agonist activity at human CB2 receptor expressed in Sf9 cells coexpressing Galpha i2 assessed as Galpha GTPase activity using [gamma-33P]GTP by scintillation counting
Cannabinoid receptor 1 [7] = biological target: T1, Cannabinoid receptor 1; test: Agonist activity at human CB1 receptor expressed in Sf9 cells coexpressing Galpha i2 assessed as Galpha GTPase activity using [gamma-33P]GTP by scintillation counting
Homo sapiens = species: Homo sapiens; test: Selectivity ratio of EC50 for human CB1 receptor to EC50 for human CB2 receptor
Cannabinoid receptor 2 [8] = biological target: T2, Cannabinoid receptor 2; test: Inverse agonist activity at human CB2 receptor expressed in Sf9 cells coexpressing Galpha i2 assessed as Galpha GTPase activity using [gamma-33P]GTP by scintillation counting in presence of CP55940
Cannabinoid receptor 1 [9] = biological target: T1, Cannabinoid receptor 1; test: Inverse agonist activity at human CB1 receptor expressed in Sf9 cells coexpressing Galpha i2 assessed as Galpha GTPase activity using [gamma-33P]GTP by scintillation counting in presence of CP55940

Row | SMILES | Emax (Cannabinoid receptor 1 [1]) [%] | Emax (Cannabinoid receptor 2 [2]) [%] | EC50 (Cannabinoid receptor 2 [3]) [µM] | Emax (Cannabinoid receptor 2 [4]) [%] | Emax (Cannabinoid receptor 1 [5]) [%] | EC50 (Cannabinoid receptor 2 [6]) [nM] | EC50 (Cannabinoid receptor 1 [7]) [nM] | Ratio EC50 (Homo sapiens) | EC50 (Cannabinoid receptor 2 [8]) [µM] | EC50 (Cannabinoid receptor 1 [9]) [µM]
1 | CCOc1ccc(Cc2nc3cc(C(=O)N(CC)CC)ccc3n2CCCN(C)C)cc1 | -3 | 69 | 12.6 | 106 | 95 |  |  |  |  | 
2 | CCCCn1c(Cc2ccc(OCC)cc2)nc2cc(C(=O)N(CC)CC)ccc21 | 67 | 162 |  | 198 |  | 174 | 1350 | 8 |  | 
3 | CCOc1ccc(Cc2nc3cc(C(=O)OC)ccc3n2CCC(C)C)cc1 | -3 | 121 |  | 37 | 98 | 295 |  |  |  | 
4 | CCOc1ccc(Cc2nc3cc(C(=O)N(CC)CC)ccc3n2CCCCCCCCCCN(C)C)cc1 | -55 | 60 |  | 1 |  |  |  |  | 31.6 | 25.1
5 | CCOc1ccc(Cc2nc3cc(C(=O)N(CC)CC)ccc3n2CCCCN(C)CCCCn2c(Cc3ccc(OCC)cc3)nc3cc(C(=O)N(CC)CC)ccc32)cc1 | -40 | 14 |  | 5 |  |  |  |  | 57.5 | 
6 | COc1ccc(C(=O)c2c(C)n(CCN3CCOCC3)c3cc(I)ccc23)cc1 |  | 15 |  | 5 |  |  |  |  | 0.603 | 
7 | CCOc1ccc(Cc2nc3cc(C(=O)N(CC)CC)ccc3n2CCCN(C)CCCn2c(Cc3ccc(OCC)cc3)nc3cc(C(=O)N(CC)CC)ccc32)cc1 | -43 | 5 |  | -2 |  |  |  |  | 12 | 34.7
8 | Cc1ccc(Cn2nc(C(=O)NC3C4(C)CCC(C4)C3(C)C)cc2-c2ccc(Cl)c(C)c2)cc1 (stereo not given) |  | 9 |  | -3 |  |  |  |  |  | 
9 | CCOc1ccc(Cc2nc3cc(C(=O)NCCCN(C)C)ccc3n2CCC(C)C)cc1 | -5 | 65 |  | 11 | 71 |  |  |  |  | 
10 | CCOc1ccc(Cc2nc3cc(C(=O)NCCCN(C)CCCNC(=O)c4ccc5c(c4)nc(Cc4ccc(OCC)cc4)n5CCC(C)C)ccc3n2CCC(C)C)cc1 | -83 | -32 |  | -11 |  |  |  |  | 2.88 | 17.4
11 | Cc1c(C(=O)NN2CCCCC2)nn(-c2ccc(Cl)cc2Cl)c1-c1ccc(I)cc1 | -84 |  |  |  | -8 |  |  |  |  | 
12 | CCOc1ccc(Cc2nc3cc(C(=O)N(CC)CC)ccc3n2CCC(C)C)cc1 | 48 | 167 |  | 192 |  |  | 3240 |  |  | 
13 | CCOc1ccc(Cc2nc3cc(C(=O)NCCCCCCCCCCN(C)CCCCCCCCCCNC(=O)c4ccc5c(c4)nc(Cc4ccc(OCC)cc4)n5CCC(C)C)ccc3n2CCC(C)C)cc1 | -42 | 28 |  | 3 |  |  |  |  | 16.6 | 25.7
14 | CCOc1ccc(Cc2nc3cc(C(=O)NCCCCCCCCCCN(C)C)ccc3n2CCC(C)C)cc1 | -58 | 20 |  | 0 |  |  |  |  | 19.5 | 24
15 | CCOc1ccc(Cc2nc3cc(C(=O)N(CC)CC)ccc3n2CCCCCCCCCCN(C)CCCCCCCCCCn2c(Cc3ccc(OCC)cc3)nc3cc(C(=O)N(CC)CC)ccc32)cc1 | -97 | -33 |  | -11 |  |  |  |  | 6.61 | 6.31
